Like-named read-outs stand apart in the source and are kept apart here.
Tests used:
[1] = test system: KM12 Cliff (G595R) cell line; test: NTRK G595R mutant cellular assay (CellTiter-Glo growth inhibition); assay type: cell-based; settings: 72 hr, CellTiter-Glo
Experimental: (§1) NTRK Wild Type and G595R Mutant Cellular Assays Protocol
(§2) KM12 wild type colon carcinoma cell line harboring the TPM3-NTRK1 fusion protein was obtained from the National Cancer Institute (NCI). This line has been previously shown to be dependent upon the NTRK activity derived from the NTRK fusion protein for growth and survival. […] Cells were first plated in 384-well plates at 1000 cells/well in complete media (10% FBS and 1% pen/strep) and incubated overnight at 37° C. Cells were then dosed with test articles at varying concentrations using the Bravo liquid handling system. […] Each compound was run in duplicate per plate. […] 72 hr after dosing, assay plates were developed using CellTiter-Glo (Promega) and resultant luminescence was read on the Envision plate reader. IC50 determinations were calculated using a 4-parameter curve fitting algorithm

[2] = test system: KM12 wild type colon carcinoma cell line harboring the TPM3-NTRK1 fusion protein; test: NTRK wild type cellular assay (CellTiter-Glo growth inhibition); assay type: cell-based; settings: 72 hr, CellTiter-Glo, read-out: KM12 (WT) IC50
Experimental: as §1, §2

wild type NTRK1 enzyme = target: T1, wild type NTRK1 enzyme (Homo sapiens, UniProt P04629); test: NTRK1 Wild Type Assay at 1 mM ATP; assay type: biochemical; settings: 1 mM ATP; read-out: Enz NTRK1 IC50
T1 construct: purchased BPS Bioscience 40280
Experimental: NTRK1 Wild Type Assay at 1 mM ATP
The reaction was stopped by the addition of 70 μL of Stop buffer (100 mM HEPES pH 7.5, 0.015% Brij 35, 35 mM EDTA and 0.2% of Coating Reagent 3 (Caliper Lifesciences)). The plate was then read on a Caliper EZReader 2 (protocol settings: −1.7 psi, upstream voltage −500, downstream voltage −3000, post sample sip 35s).

T1 sequence (P04629 440-796 limits assumed): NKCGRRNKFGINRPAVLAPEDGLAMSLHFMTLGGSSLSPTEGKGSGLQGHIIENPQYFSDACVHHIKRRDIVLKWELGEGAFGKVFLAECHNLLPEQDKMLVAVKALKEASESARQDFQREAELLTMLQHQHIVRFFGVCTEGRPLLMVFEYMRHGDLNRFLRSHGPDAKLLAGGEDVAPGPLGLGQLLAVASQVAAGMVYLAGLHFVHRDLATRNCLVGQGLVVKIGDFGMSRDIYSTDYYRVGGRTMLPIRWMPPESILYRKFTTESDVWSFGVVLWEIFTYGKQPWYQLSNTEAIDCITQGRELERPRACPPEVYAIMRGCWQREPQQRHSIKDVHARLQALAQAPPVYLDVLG

Row | SMILES | IC50 ([2]; Homo sapiens, KM12, 72 h) | IC50 (wild type NTRK1 enzyme) | IC50 [2] | IC50 ([1]; Homo sapiens, KM12, 72 h) | IC50 [1]
1 | CN(Cc1cc(F)cnc1Cl)C(=O)c1n[nH]c2ncnc(NC3CCOCC3O)c12 (stereo not drawn) [Compound 150] |  | 0.01 to 0.1 µM | 0.01 to 0.1 µM |  | 0.01 to 0.1 µM
2 | CN(Cc1cc(F)cnc1Cl)C(=O)c1n[nH]c2ncnc(NC3CC(F)CC3O)c12 (stereo not drawn) [Compound 151] |  | 0.01 to 0.1 µM | 0.01 to 0.1 µM |  | 0.01 to 0.1 µM
3 | O=C(c1n[nH]c2ncnc(N[C@H]3[C@H](O)[C@H](O)[C@@H]4C[C@@H]43)c12)N1C[C@@H](F)C[C@@H]1c1ccccc1 [Compound 153] |  | 0.01 to 0.1 µM | 0.01 to 0.1 µM |  | 0.01 to 0.1 µM
4 | O=C(c1n[nH]c2ncnc(N[C@@H]3CCC[C@@H](O)[C@H]3O)c12)N1C[C@@H](F)C[C@@H]1c1ccccc1 [Compound 155] |  | 0.01 to 0.1 µM | 0.01 to 0.1 µM |  | 0.01 to 0.1 µM
5 | CN(Cc1cc(Cl)ccc1C#N)C(=O)c1n[nH]c2ncnc(N[C@@H]3CC[C@@H](O)[C@H]3O)c12 [Compound 156, N-(5-chloro-2-cyanobenzyl)-4-(((1R,2S,3R)-2,3-dihydroxycyclopentyl)amino)-N-methyl-1H-pyrazolo[3,4-d]pyrimidine-3-carboxamide] | 0.01 to 0.1 µM | 0.01 to 0.1 µM |  | < 0.01 µM | 
6 | CN(Cc1cc(F)cnc1Cl)C(=O)c1n[nH]c2ncnc(N[C@@H]3CCC[C@@H](O)[C@H]3O)c12 [Compound 161] |  | 0.01 to 0.1 µM | 0.01 to 0.1 µM |  | 0.01 to 0.1 µM
7 | CN(Cc1cc(F)cc(F)c1F)C(=O)c1n[nH]c2ncnc(N[C@@H]3COC[C@@H](O)[C@H]3O)c12 [Compound 164] | 0.01 to 0.1 µM | 0.01 to 0.1 µM |  | 0.01 to 0.1 µM | 
8 | O=C(c1n[nH]c2ncnc(NC3COCC(O)C3O)c12)N1CC(F)CC1c1cccc(F)c1 (stereo not drawn) [Compound 169] |  | 0.01 to 0.1 µM | 0.01 to 0.1 µM |  | 0.01 to 0.1 µM
9 | O=C(c1n[nH]c2ncnc(N[C@@H]3C=C[C@@H](O)[C@H]3O)c12)N1C[C@@H](F)C[C@@H]1c1cc(F)cc(F)c1 [Compound 171] |  | 0.01 to 0.1 µM | 0.01 to 0.1 µM |  | 0.01 to 0.1 µM
10 | CN(Cc1cc(F)cc(OC(F)F)c1)C(=O)c1n[nH]c2ncnc(N[C@@H]3CC[C@@H](O)[C@H]3O)c12 [Compound 179] |  | 0.01 to 0.1 µM | 0.01 to 0.1 µM |  | 0.1 to 1 µM
11 | N#CC1CC(O)C(Nc2ncnc3[nH]nc(C(=O)N4CC(F)CC4c4cc(F)cc(F)c4)c23)C1 (stereo not drawn) [Compound 185] |  | < 0.01 µM | < 0.01 µM |  | < 0.01 µM
12 | O=C(c1n[nH]c2ncnc(N[C@H]3[C@H](O)[C@H](O)[C@@H]4C[C@@H]43)c12)N1C[C@@H](F)C[C@@H]1c1cc(F)cc(F)c1 [Compound 188] | < 0.01 µM | < 0.01 µM |  | < 0.01 µM | 
13 | O=C(c1n[nH]c2ncnc(N[C@H]3[C@H](O)[C@H](O)[C@@H]4C[C@@H]43)c12)N1C[C@@H](F)C[C@@H]1c1cccc(F)c1F [Compound 189] |  | < 0.01 µM | < 0.01 µM |  | 0.01 to 0.1 µM
14 | COc1ncc(F)cc1[C@H]1C[C@H](F)CN1C(=O)c1n[nH]c2ncnc(N[C@@H]3CCOC[C@H]3O)c12 [Compound 190] | 0.01 to 0.1 µM | < 0.01 µM |  | 0.01 to 0.1 µM | 
15 | O=C(c1n[nH]c2ncnc(NC3CC[C@@H](O)C[C@H]3O)c12)N1C[C@@H](F)C[C@@H]1c1cc(F)ccc1F (stereo partly drawn) [Compound 191] |  | < 0.01 µM | 0.01 to 0.1 µM |  | 0.01 to 0.1 µM
16 | O=C(c1n[nH]c2ncnc(N[C@@H]3C=C[C@@H](O)[C@H]3O)c12)N1C[C@@H](F)C[C@@H]1c1cc(F)cc(Cl)c1 [Compound 192] |  | < 0.01 µM | 0.01 to 0.1 µM |  | 0.01 to 0.1 µM
17 | O=C(c1n[nH]c2ncnc(NC3CCCC(O)C3O)c12)N1CC(F)CC1c1cccc(F)c1F (stereo not drawn) [Compound 193] |  | < 0.01 µM | 0.01 to 0.1 µM |  | 0.01 to 0.1 µM
18 | O=C(c1n[nH]c2ncnc(N[C@@H]3C=C[C@@H](O)[C@H]3O)c12)N1C[C@@H](F)C[C@@H]1c1cc(F)cnc1Cl [Compound 194] |  | 0.01 to 0.1 µM | 0.01 to 0.1 µM |  | 0.01 to 0.1 µM
19 | O=C(c1n[nH]c2ncnc(N[C@@H]3CC[C@@H](O)[C@H]3O)c12)N1C[C@@H](F)C[C@@H]1c1cc(F)ccc1Cl [Compound 195] | < 0.01 µM | < 0.01 µM |  | < 0.01 µM | 
20 | O=C(c1n[nH]c2ncnc(N[C@@H]3CCOC[C@H]3O)c12)N1C[C@@H](F)C[C@@H]1c1cc(F)ccc1Cl [Compound 196] | < 0.01 µM | < 0.01 µM |  | < 0.01 µM | 

Second part, led by results:

Row | IC50 ([2]; Homo sapiens, KM12, 72 h) | IC50 (wild type NTRK1 enzyme) | IC50 [2] | SMILES | IC50 ([1]; Homo sapiens, KM12, 72 h) | IC50 [1]
21 | < 0.01 µM | < 0.01 µM |  | CN(Cc1cc(Cl)ccc1F)C(=O)c1n[nH]c2ncnc(N[C@@H]3CC[C@@H](O)[C@H]3O)c12 [Compound 148] | < 0.01 µM | 
22 |  | < 0.01 µM | 0.01 to 0.1 µM | CN(Cc1cc(F)cnc1Cl)C(=O)c1n[nH]c2ncnc(NC3COCCC3O)c12 (stereo not drawn) [Compound 149] |  | 0.01 to 0.1 µM
23 | 0.01 to 0.1 µM | < 0.01 µM |  | O=C(c1n[nH]c2ncnc(N[C@@H]3CCOC[C@H]3O)c12)N1C[C@@H](F)C[C@@H]1c1cccc(F)c1 [Compound 158] | 0.01 to 0.1 µM | 
24 | 0.01 to 0.1 µM | < 0.01 µM |  | CN(Cc1cc(F)cnc1Cl)C(=O)c1n[nH]c2ncnc(N[C@H]3[C@H](O)[C@H](O)[C@@H]4C[C@@H]43)c12 [Compound 159] | 0.01 to 0.1 µM | 
25 |  | < 0.01 µM | 0.01 to 0.1 µM | CC(c1cc(F)ccc1F)N(C)C(=O)c1n[nH]c2ncnc(NC3COCC(O)C3O)c12 (stereo not drawn) [Compound 160] |  | 0.01 to 0.1 µM
26 | 0.01 to 0.1 µM | < 0.01 µM |  | CN(Cc1cc(F)ccc1Cl)C(=O)c1n[nH]c2ncnc(N[C@@H]3COC[C@@H](O)[C@H]3O)c12 [Compound 162] | 0.01 to 0.1 µM | 
27 | 0.01 to 0.1 µM | < 0.01 µM |  | CN(Cc1cc(Cl)ccc1F)C(=O)c1n[nH]c2ncnc(N[C@@H]3COC[C@@H](O)[C@H]3O)c12 [Compound 163] | 0.01 to 0.1 µM | 
28 |  | < 0.01 µM | 0.1 to 1 µM | N#C[C@H]1C[C@@H](O)[C@H](Nc2ncnc3[nH]nc(C(=O)N4C[C@@H](F)C[C@@H]4c4cncc(F)c4)c23)C1 [Compound 166] |  | 0.1 to 1 µM
29 |  | < 0.01 µM | < 0.01 µM | CN(Cc1cc(Cl)ccc1Br)C(=O)c1n[nH]c2ncnc(N[C@@H]3CCC[C@@H](O)[C@H]3O)c12 [Compound 167] |  | < 0.01 µM
30 |  | < 0.01 µM | < 0.01 µM | O=C(c1n[nH]c2ncnc(NC3CCCC(O)C3O)c12)N1CC(F)CC1c1cccc(F)c1 (stereo not drawn) [Compound 168] |  | < 0.01 µM
31 |  | < 0.01 µM | < 0.01 µM | O=C(c1n[nH]c2ncnc(N[C@@H]3C=C[C@@H](O)[C@H]3O)c12)N1C[C@@H](F)C[C@@H]1c1cc(F)ccc1F [Compound 170] |  | < 0.01 µM
32 |  | < 0.01 µM | 0.01 to 0.1 µM | O=C(c1n[nH]c2ncnc(N[C@@H]3C=C[C@@H](O)[C@H]3O)c12)N1C[C@@H](F)C[C@@H]1c1cccc(F)c1F [Compound 172] |  | 0.01 to 0.1 µM
33 | < 0.01 µM | < 0.01 µM |  | O=C(c1n[nH]c2ncnc(N[C@@H]3CC[C@@H](O)[C@H]3O)c12)N1C[C@@H](F)C[C@@H]1c1cc(F)cc(F)c1 [Compound 173] | < 0.01 µM | 
34 |  | < 0.01 µM | < 0.01 µM | O=C(c1n[nH]c2ncnc(NC3CCOCC3O)c12)N1CC(F)CC1c1cc(F)cc(F)c1 (stereo not drawn) [Compound 174] |  | < 0.01 µM
35 |  | < 0.01 µM | 0.01 to 0.1 µM | O=C(c1n[nH]c2ncnc(NC3CCOCC3O)c12)N1CC(F)CC1c1cccc(F)c1F (stereo not drawn) [Compound 175] |  | 0.01 to 0.1 µM
36 |  | < 0.01 µM | 0.01 to 0.1 µM | O=C(c1n[nH]c2ncnc(N[C@@H]3CC[C@@H](O)[C@H]3O)c12)N1C[C@@H](F)C[C@@H]1c1cccc(F)c1F [Compound 176] |  | 0.01 to 0.1 µM
37 | < 0.01 µM | < 0.01 µM |  | O=C(c1n[nH]c2ncnc(N[C@@H]3CCC[C@H]3O)c12)N1C[C@@H](F)C[C@@H]1c1cc(F)cnc1Cl [Compound 177] | < 0.01 µM | 
38 |  | < 0.01 µM | 0.01 to 0.1 µM | O=C(c1n[nH]c2ncnc(NC3CC(F)CC3O)c12)N1CC(F)CC1c1cc(F)cc(F)c1 (stereo not drawn) [Compound 178] |  | 0.01 to 0.1 µM
39 |  | < 0.01 µM | < 0.01 µM | CN(C(=O)c1n[nH]c2ncnc(NC3CC(C(F)F)CC3O)c12)C(CO)c1cc(F)ccc1F (stereo not drawn) [Compound 180] |  | < 0.01 µM
40 |  | < 0.01 µM | 0.01 to 0.1 µM | N#Cc1cc(F)cc(C2CC(F)CN2C(=O)c2n[nH]c3ncnc(NC4CCOCC4O)c23)c1 (stereo not drawn) [Compound 181] |  | 0.01 to 0.1 µM
41 |  | < 0.01 µM | < 0.01 µM | N#Cc1cc(F)cc(C2CC(F)CN2C(=O)c2n[nH]c3ncnc(NC4COCCC4O)c23)c1 (stereo not drawn) [Compound 182] |  | 0.01 to 0.1 µM
42 |  | < 0.01 µM | < 0.01 µM | O=C(c1n[nH]c2ncnc(NC3CCOCC3O)c12)N1CC(F)CC1c1cc(F)ccc1Br (stereo not drawn) [Compound 183] |  | < 0.01 µM
43 |  | < 0.01 µM | < 0.01 µM | N#CC1CC(O)C(Nc2ncnc3[nH]nc(C(=O)N4CC(F)CC4c4cc(F)ccc4F)c23)C1 (stereo not drawn) [Compound 184] |  | < 0.01 µM
